Data taken from ChEMBL document CHEMBL5370599, “Discovery of a 53BP1 Small Molecule Antagonist Using a Focused DNA-Encoded Library Screen” (J Med Chem, 2023).

Target: TP53-binding protein 1 (Homo sapiens, UniProt Q12888)
Test: Displacement of Biotin-p53K381acK382me2 from N-terminal his6-tagged 53BP1 (1484 to 1603 residues) (unknown origin) expressed in Rosetta2 BL21 (DE3) pLysS competent cells by TR-FRET assay
Type: single protein
Details: not given

Sequence of TP53-binding protein 1 (Q12888 whole entry, the tested form may be a part): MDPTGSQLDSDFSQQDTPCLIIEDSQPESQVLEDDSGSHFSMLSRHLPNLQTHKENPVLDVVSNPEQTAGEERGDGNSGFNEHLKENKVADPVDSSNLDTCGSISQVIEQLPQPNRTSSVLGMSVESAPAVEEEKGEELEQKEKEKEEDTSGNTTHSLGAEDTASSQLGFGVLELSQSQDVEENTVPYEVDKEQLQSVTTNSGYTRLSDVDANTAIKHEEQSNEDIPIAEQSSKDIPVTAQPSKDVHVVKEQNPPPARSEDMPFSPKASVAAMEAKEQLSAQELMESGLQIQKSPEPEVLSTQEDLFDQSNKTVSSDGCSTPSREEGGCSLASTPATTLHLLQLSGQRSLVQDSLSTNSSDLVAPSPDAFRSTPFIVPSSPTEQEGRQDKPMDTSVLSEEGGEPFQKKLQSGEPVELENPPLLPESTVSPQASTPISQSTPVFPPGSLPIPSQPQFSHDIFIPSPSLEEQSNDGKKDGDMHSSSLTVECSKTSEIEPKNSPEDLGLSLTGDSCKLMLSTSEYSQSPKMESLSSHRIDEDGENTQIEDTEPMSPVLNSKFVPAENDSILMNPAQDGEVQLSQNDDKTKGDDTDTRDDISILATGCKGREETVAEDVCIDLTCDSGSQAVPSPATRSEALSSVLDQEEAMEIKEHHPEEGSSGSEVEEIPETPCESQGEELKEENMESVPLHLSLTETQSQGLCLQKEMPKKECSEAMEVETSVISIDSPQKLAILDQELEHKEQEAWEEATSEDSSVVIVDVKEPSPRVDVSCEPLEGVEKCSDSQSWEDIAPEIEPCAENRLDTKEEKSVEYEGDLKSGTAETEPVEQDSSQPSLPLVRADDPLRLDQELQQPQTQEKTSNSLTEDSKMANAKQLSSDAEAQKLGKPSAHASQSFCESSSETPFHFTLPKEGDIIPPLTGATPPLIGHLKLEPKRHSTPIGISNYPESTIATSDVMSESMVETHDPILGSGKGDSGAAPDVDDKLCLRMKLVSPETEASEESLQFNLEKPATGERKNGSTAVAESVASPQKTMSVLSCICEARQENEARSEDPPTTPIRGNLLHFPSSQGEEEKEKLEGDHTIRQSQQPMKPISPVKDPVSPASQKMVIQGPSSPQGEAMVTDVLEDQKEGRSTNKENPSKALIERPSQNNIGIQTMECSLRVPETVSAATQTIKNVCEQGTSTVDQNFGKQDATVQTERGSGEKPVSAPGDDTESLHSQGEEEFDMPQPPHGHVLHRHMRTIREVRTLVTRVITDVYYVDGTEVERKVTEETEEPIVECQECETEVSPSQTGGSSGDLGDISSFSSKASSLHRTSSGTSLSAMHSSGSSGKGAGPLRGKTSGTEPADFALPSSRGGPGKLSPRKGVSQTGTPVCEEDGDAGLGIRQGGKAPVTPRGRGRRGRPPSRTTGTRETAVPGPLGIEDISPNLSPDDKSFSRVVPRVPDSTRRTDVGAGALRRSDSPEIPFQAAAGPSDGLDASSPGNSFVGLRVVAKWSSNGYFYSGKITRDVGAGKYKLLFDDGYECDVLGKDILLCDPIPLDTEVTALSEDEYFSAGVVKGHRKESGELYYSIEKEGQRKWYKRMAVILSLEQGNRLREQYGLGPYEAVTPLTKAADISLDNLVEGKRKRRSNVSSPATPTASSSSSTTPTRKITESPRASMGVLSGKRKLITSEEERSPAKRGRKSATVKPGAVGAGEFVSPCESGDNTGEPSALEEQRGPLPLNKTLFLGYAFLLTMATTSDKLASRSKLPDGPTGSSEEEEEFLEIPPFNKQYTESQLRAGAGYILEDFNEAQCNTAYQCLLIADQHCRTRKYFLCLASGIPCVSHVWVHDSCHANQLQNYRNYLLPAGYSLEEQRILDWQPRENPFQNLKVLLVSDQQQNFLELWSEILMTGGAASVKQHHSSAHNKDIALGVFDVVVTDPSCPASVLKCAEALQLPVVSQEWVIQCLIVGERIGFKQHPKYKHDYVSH

| IC50 | Compound |
| --- | --- |
| 2.2 µM | CN1CCN(c2ccnc(C(=O)N3CC[C@H](C(=O)Nc4cccc(-c5ccc(C(N)=O)cc5)c4)C3)c2)CC1 |
| 38 µM | CN1CCN(c2ccnc(C(=O)N3CCC[C@H](C(=O)Nc4cccc(-c5ccc6[nH]cnc6c5)c4)C3)c2)CC1 |
| 15 µM | CN1CCN(c2ccnc(C(=O)N3CCC[C@@H](C(=O)Nc4cccc(-c5ccc(C(N)=O)cc5)c4)C3)c2)CC1 |
| 18 µM | CN1CCN(c2ccnc(C(=O)N3CCC[C@H](C(=O)Nc4cccc(-c5ccccn5)c4)C3)c2)CC1 |
| 6.6 µM | CN1CCN(c2ccnc(C(=O)N3CCC[C@H](C(=O)Nc4cccc(-c5ccncc5)c4)C3)c2)CC1 |
| 11 µM | CNC(=O)c1cccc(-c2cccc(NC(=O)[C@H]3CCCN(C(=O)c4cc(N5CCN(C)CC5)ccn4)C3)c2)c1 |
| 12 µM | CN1CCN(c2ccnc(C(=O)N3CCC[C@H](C(=O)Nc4cccc(-c5ccc6c(c5)CCCN6)c4)C3)c2)CC1 |
| 5.7 µM | CN1CCN(c2ccnc(C(=O)N3CC[C@H]3C(=O)Nc3cccc(-c4ccc(C(N)=O)cc4)c3)c2)CC1 |
| 3.8 µM | CN1CCN(c2ccnc(C(=O)N3CCC[C@H](C(=O)Nc4cccc(-c5ccccc5)c4)C3)c2)CC1 |
| 22 µM | CN1CCN(c2ccnc(C(=O)N3CCC[C@H](C(=O)Nc4ccccc4)C3)c2)CC1 |
| 10 µM | COC(=O)c1ccc(-c2cccc(NC(=O)[C@H]3CCCN(C(=O)c4cc(N5CCN(C)CC5)ccn4)C3)c2)cc1 |
| 10 µM | COC(=O)c1cccc(-c2cccc(NC(=O)[C@H]3CCCN(C(=O)c4cc(N5CCN(C)CC5)ccn4)C3)c2)c1 |
| 32 µM | CN1CCN(c2ccnc(C(=O)N3CCC[C@H](C(=O)Nc4cccc(N5CCOCC5)c4)C3)c2)CC1 |
| 4.1 µM | CC(C)N1CCN(c2ccnc(C(=O)N3CCC[C@H](C(=O)Nc4cccc(-c5ccc(C(N)=O)cc5)c4)C3)c2)CC1 |
| 5 µM | CN1CCN(c2ccnc(C(=O)N3CCC[C@@H]3C(=O)Nc3cccc(-c4ccc(C(N)=O)cc4)c3)c2)CC1 |
| 3.4 µM | CN1CCN(c2ccnc(C(=O)N3CCC[C@H](C(=O)Nc4cccc(-c5ccc6c(c5)CNC6=O)c4)C3)c2)CC1 |

| IC50 | Compound |
| --- | --- |
| > 100 µM | CN1CCN(c2ccnc(C(=O)N3CCC[C@H](C(=O)Nc4cc(-c5cccnc5)ncn4)C3)c2)CC1 |
| 1.9 µM | CN1CCN(c2ccnc(C(=O)N3CCC[C@H](C(=O)Nc4cccc(-c5cccc(C(N)=O)c5)c4)C3)c2)CC1 |
| 1.3 µM | CN1CCN(c2cccc(C(=O)N3CCC[C@H](C(=O)Nc4cccc(-c5ccc(C(N)=O)cc5)c4)C3)c2)CC1 |
| 5.9 µM | CN1CCN(c2ccnc(C(=O)N3CCC[C@H](C(=O)Nc4cncc(-c5ccccc5)c4)C3)c2)CC1 |
| 83 µM | CN1CCN(c2ccnc(C(=O)N3CCC[C@H](C(=O)Nc4cccc(-c5cccc(C(=O)O)c5)c4)C3)c2)CC1 |
| 7.8 µM | CN1CCN(c2ccnc(C(=O)N3CCC[C@H](C(=O)Nc4cccc(-c5ccc6c(c5)CCN6)c4)C3)c2)CC1 |
| 1.4 µM | CCN1CCN(c2ccnc(C(=O)N3CCC[C@H](C(=O)Nc4cccc(-c5ccc(C(N)=O)cc5)c4)C3)c2)CC1 |
| > 100 µM | CNC(=O)[C@H]1CCCN(C(=O)c2cc(N3CCN(C)CC3)ccn2)C1 |
| 44 µM | CN1CCN(c2ccnc(C(=O)N3CCC[C@H](C(=O)Nc4cccc(N5CCNCC5)c4)C3)c2)CC1 |
| 15 µM | CN1CCN(c2ccnc(C(=O)N3CCC[C@H](C(=O)Nc4cccc(-c5ccc6[nH]ncc6c5)c4)C3)c2)CC1 |
| 8.1 µM | CN1CCN(c2ccnc(C(=O)N3CCC[C@H](C(=O)Nc4cccc(-c5ccc(C(=O)O)cc5)c4)C3)c2)CC1 |
| 5.6 µM | CNC(=O)c1ccc(-c2cccc(NC(=O)[C@H]3CCCN(C(=O)c4cc(N5CCN(C)CC5)ccn4)C3)c2)cc1 |
| 14 µM | CCCN1CCN(c2ccnc(C(=O)N3CCC[C@H](C(=O)Nc4cccc(-c5ccc(C(N)=O)cc5)c4)C3)c2)CC1 |
| 28 µM | CN1CCN(c2ccnc(C(=O)N3CCC[C@H](C(=O)Nc4cccc(-c5ccc6c(c5)CCNC6)c4)C3)c2)CC1 |
| 7.4 µM | CN1CCN(c2ccnc(C(=O)N3CCC[C@H](C(=O)Nc4cccc(-c5ccccc5)n4)C3)c2)CC1 |

Tested on: HEK-293T
Test: Cytotoxicity against HEK293T cells assessed as reduction in cell viability measured upto 200 uM by celltiterglo 2.0 assay
Type: toxicity, cell-based
Details: human

| Compound | Activity |
| --- | --- |
| CN1CCN(c2ccnc(C(=O)N3CCC[C@H](C(=O)Nc4cccc(-c5ccc6c(c5)CNC6)c4)C3)c2)CC1.Cl.Cl.Cl | Non-Toxic |

Tested on: TERT-RPE1
Test: Cytotoxicity against human RPE-1 cells assessed as reduction in cell viability measured upto 200 uM by celltiterglo 2.0 assay
Type: toxicity, cell-based
Details: tert-rpe1, 200 µM

| Compound | Activity |
| --- | --- |
| CN1CCN(c2ccnc(C(=O)N3CCC[C@H](C(=O)Nc4cccc(-c5ccc6c(c5)CNC6)c4)C3)c2)CC1.Cl.Cl.Cl | Non-Toxic |
